Assay results from DBAASP.
Values after ≈ are worked out from the molar mass of the structure shown. Values joined by “and” are separate entries in the source; they are usually repeats but may differ in a detail not shown here. Identical values can stand only once. Each block holds one compound with its values, some of them ahead of it.

What was measured:
Test in all cases: ≥ marks a high value that may be exact or a test limit, other limits are often not marked, values filed in µg/mL are converted to µM
[1] = test system: Staphylococcus epidermidis ATCC 51625
[2] = test system: Pseudomonas aeruginosa ATCC 27853
[3] = test system: Enterococcus faecium ATCC 700221
[4] = test system: Acinetobacter baumannii ATCC 17978D-5
[5] = test system: Streptococcus pneumoniae ATCC 49619
[6] = test system: Pseudomonas aeruginosa ATCC 19660
[7] = test system: Klebsiella aerogenes ATCC 13048
[8] = test system: Staphylococcus aureus ATCC 33591
[9] = test system: Escherichia coli ATCC 25404
[10] = test system: Staphylococcus epidermidis ATCC 9709
Escherichia coli O157 = test system: Escherichia coli O157
[11] = test system: Staphylococcus aureus ATCC 25923
[12] = test system: Micrococcus luteus ATCC 10420
Salmonella typhimurium = test system: Salmonella typhimurium
Listeria monocytogenes = test system: Listeria monocytogenes
[13] = test system: Staphylococcus aureus ATCC 1717
Enterococcus faecalis = test system: Enterococcus faecalis
[14] = test system: Bacillus subtilis ATCC 23857
[15] = test system: Klebsiella pneumoniae NDM-1
Enterobacter cloacae = test system: Enterobacter cloacae
Escherichia coli NDM-1 = test system: Escherichia coli NDM-1
Morganella morganii = test system: Morganella morganii
[16] = test system: Escherichia coli ATCC 25922
Klebsiella oxytoca = test system: Klebsiella oxytoca
Citrobacter freundii = test system: Citrobacter freundii
Escherichia coli ESBL = test system: Escherichia coli ESBL
Escherichia coli BL21 = test system: Escherichia coli BL21
Bacillus subtilis 168 = test system: Bacillus subtilis 168
Staphylococcus aureus = test system: Staphylococcus aureus
Vibrio cholerae N16961 = test system: Vibrio cholerae N16961
Klebsiella pneumoniae = test system: Klebsiella pneumoniae
[17] = test system: Pseudomonas aeruginosa ATCC 15442
Escherichia coli D31 = test system: Escherichia coli D31
[18] = test system: Candida albicans ATCC 10231
[19] = test system: Streptococcus mutans ATCC 25175
[20] = test system: Bacillus licheniformis ATCC 14580
[21] = test system: Enterococcus faecalis 1F-1
[22] = test system: Salmonella enterica ATCC H9812
[23] = test system: Bacillus cereus ATCC 14579
[24] = test system: Enterococcus faecium 5F-10
[25] = test system: Bacillus subtilis ATCC 6051
[26] = test system: Bacillus amyloliquefaciens ATCC 23842
[27] = test system: Pseudomonas aeruginosa PAO1
[28] = test system: Staphylococcus aureus ATCC 29213
[29] = test system: Proteus mirabilis ATCC 35659

Structure (SMILES): C[C@H](NC(=O)[C@H](Cc1ccccc1)NC(=O)[C@H](C)NC(=O)[C@H](Cc1ccccc1)NC(=O)[C@H](C)NC(=O)[C@H](Cc1ccccc1)NC(=O)[C@H](CCCCN)NC(=O)[C@H](CCCCN)NC(=O)[C@H](C)NC(=O)[C@H](Cc1ccccc1)NC(=O)[C@H](CCCCN)NC(=O)[C@H](CCCCN)NC(=O)[C@H](Cc1ccccc1)NC(=O)[C@H](CCCCN)NC(=O)[C@H](CCCCN)NC(=O)[C@H](C)NC(=O)[C@H](Cc1ccccc1)NC(=O)[C@H](CCCCN)NC(=O)[C@H](CCCCN)NC(=O)[C@H](C)NC(=O)[C@@H](N)Cc1ccccc1)C(=O)N[C@@H](Cc1ccccc1)C(=O)O [FAKKFAKKFKKFAKKFAFAFAF]
MIC [1]: 3.02 µM (≈ 8 µg/mL) | MIC [2]: 12.1 µM (≈ 32 µg/mL) | MIC [3]: 12.1 µM (≈ 32 µg/mL) | MIC [4]: 12.1 µM (≈ 32 µg/mL) | MIC [5]: 6.04 µM (≈ 16 µg/mL) | MIC [6]: 12.1 µM (≈ 32 µg/mL) | MIC [7]: 12.1 µM (≈ 32 µg/mL) | MIC [8]: 24.2 µM (≈ 64 µg/mL)

Structure (SMILES): CC(C)C[C@H](NC(=O)[C@H](CC(C)C)NC(=O)[C@H](CCCCN)NC(=O)[C@H](CO)NC(=O)[C@H](CC(C)C)NC(=O)[C@H](C)NC(=O)[C@H](Cc1cnc[nH]1)NC(=O)[C@H](Cc1c[nH]c2ccccc12)NC(=O)[C@H](CC(C)C)NC(=O)[C@H](C)NC(=O)CNC(=O)[C@H](CC(C)C)NC(=O)[C@@H](N)Cc1ccccc1)C(=O)O [FLGALWHALSKLL]
MIC [9]: ≥ 64 µM | MIC [10]: 4 µM (≈ 5.88 µg/mL) | MIC (Escherichia coli O157): ≥ 64 µM | MIC [11]: 8 µM (≈ 11.8 µg/mL) | MIC [12]: 2 µM (≈ 2.94 µg/mL) | MIC (Salmonella typhimurium): ≥ 64 µM | MIC (Listeria monocytogenes): 8 µM (≈ 11.8 µg/mL)

Structure (SMILES): CC(C)C[C@H](NC(=O)[C@@H](N)CC(C)C)C(=O)N[C@@H](CO)C(=O)N[C@@H](CCCN=C(N)N)C(=O)N[C@H](C(=O)N[C@@H](CC(=O)O)C(=O)O)C(C)C [LLSRVD]
MIC [20]: ≥ 182 µM | MIC [21]: ≥ 182 µM | MIC [22]: ≥ 182 µM | MIC [23]: ≥ 182 µM | MIC [24]: ≥ 182 µM | MIC [25]: ≥ 182 µM | MIC [26]: ≥ 182 µM | MIC [27]: > 182 µM | MIC [28]: > 182 µM | MIC [16]: 91.2 µM (≈ 64 µg/mL) | MIC [29]: ≥ 182 µM

The next lines start with results.

MIC [13]: ≥ 128 µM | MIC (Enterococcus faecalis): ≥ 128 µM | MIC [14]: 16 µM (≈ 20.5 µg/mL) | MIC [15]: 22.6 µM (≈ 29 µg/mL) | MIC (Enterobacter cloacae): 22.6 µM (≈ 29 µg/mL) | MIC (Escherichia coli NDM-1): 16 µM (≈ 20.5 µg/mL) | MIC (Morganella morganii): ≥ 128 µM | MIC [16]: 32 µM (≈ 41 µg/mL) | MIC (Klebsiella oxytoca): ≥ 64 µM | MIC (Citrobacter freundii): 22.6 µM (≈ 29 µg/mL)
Structure (SMILES): CC[C@H](C)[C@H](NC(=O)CNC(=O)[C@@H](NC(=O)[C@H](CCCCN)NC(=O)[C@H](C)NC(=O)[C@@H](NC(=O)[C@@H](NC(=O)CN)[C@@H](C)CC)[C@@H](C)CC)[C@@H](C)CC)C(=O)N[C@@H](CCCCN)C(=O)N[C@H](C(=O)N[C@@H](CCCCN)C(=O)N[C@@H](CCCCN)C(N)=O)[C@@H](C)CC [GIIAKIGIKIKK]

MIC (Escherichia coli ESBL): 20 µM (≈ 30.4 µg/mL) | MIC (Escherichia coli BL21): 20 µM (≈ 30.4 µg/mL) | MIC (Bacillus subtilis 168): 2.5 µM (≈ 3.81 µg/mL) | MIC (Staphylococcus aureus): 20 µM (≈ 30.4 µg/mL)
Structure (SMILES): CC[C@H](C)[C@H](NC(=O)CN)C(=O)N[C@H](C(=O)N[C@@H](CCCCN)C(=O)N[C@@H](CCCCN)C(=O)N[C@H](C(=O)N[C@H](C(=O)N[C@@H](CCCCN)C(=O)N[C@@H](CCCCN)C(=O)N[C@H](C(=O)N[C@H](C(=O)N[C@@H](CCCCN)C(=O)N[C@@H](CCCCN)C(N)=O)[C@@H](C)CC)[C@@H](C)CC)[C@@H](C)CC)[C@@H](C)CC)[C@@H](C)CC [GIIKKIIKKIIKK]

MIC [11]: 8 µM and 22 µM | MIC (Klebsiella pneumoniae): 8 µM (≈ 23.3 µg/mL) | MIC (Staphylococcus aureus): 16 µM (≈ 46.7 µg/mL)
Structure (SMILES): CC[C@H](C)[C@H](NC(=O)CNC(=O)[C@H](CC(C)C)NC(=O)[C@H](CC(C)C)NC(=O)[C@H](C)NC(=O)[C@H](CO)NC(=O)[C@H](CCCCN)NC(=O)[C@@H](NC(=O)CN)[C@@H](C)CC)C(=O)N[C@@H](C)C(=O)N[C@@H](CCCCN)C(=O)N[C@@H](CC(N)=O)C(=O)N[C@H](C(=O)NCC(=O)N[C@@H](CCSC)C(=O)N[C@@H](CO)C(=O)N[C@@H](CC(C)C)C(=O)N[C@@H](CC(C)C)C(=O)N[C@@H](CCC(N)=O)C(=O)N[C@@H](CCCCN)C(=O)N[C@@H](C)C(=O)N[C@@H](CCC(N)=O)C(=O)N[C@H]1CSSC[C@@H](C(N)=O)NC(=O)[C@H](CO)NC(=O)CNC(=O)[C@H](CO)NC(=O)[C@H](CC(C)C)NC(=O)[C@H](CCCCN)NC1=O)C(C)C [GIKSALLGIAKNVGMSLLQKAQCKLSGSC]
MIC (Vibrio cholerae N16961): 10 µM (≈ 29.2 µg/mL)

MIC [17]: ≥ 100 µM | MIC (Escherichia coli D31): ≥ 100 µM | MIC [11]: > 100 µM | MIC [18]: > 100 µM | MIC [19]: ≥ 100 µM
Structure (SMILES): CC[C@H](C)[C@H](NC(=O)[C@@H](NC(=O)CN)C(C)C)C(=O)N[C@H](C(=O)N[C@@H](CC(=O)O)C(=O)N[C@@H](C)C(=O)N[C@@H](CC(C)C)C(=O)N[C@@H](CCCCN)C(=O)NCC(=O)N[C@@H](C)C(=O)N[C@@H](C)C(=O)N[C@@H](CCCCN)C(=O)N[C@H](C(=O)N[C@H](C(=O)N[C@@H](C)C(=O)N[C@@H](C)C(=O)N[C@@H](CCC(=O)O)C(=O)N[C@@H](CC(C)C)C(=O)N1CCC[C@H]1C(=O)N[C@@H](CCCN=C(N)N)C(=O)N[C@@H](CCCCN)C(=O)N[C@@H](C)C(=O)N[C@@H](Cc1cnc[nH]1)C(N)=O)C(C)C)[C@@H](C)O)[C@@H](C)O [GVITDALKGAAKTVAAELPRKAH]
